Read-outs that look alike come from different tables or passages of the source.
What was measured:
[1] = biological target: rat P2x2 (ATP-gated ion channel subunit) (rat) (UniProt P49653); assay: cell-based or functional assay
[2] = biological target: hASIC3 (human non-inactivating amiloride-sensitive proton-gated ion channel subunit) (human); assay: cell-based or functional assay
[3] = biological target: T1, human non-inactivating proton-gated ion channel hASIC3 (homomeric channels), SEQ ID No. 2 (Homo sapiens, UniProt Q9UHC3); assay: Two-electrode voltage clamp of proton-induced currents in Xenopus oocytes expressing the channel; format: cell-based; details: for remaining activity at 100 µM: 100 µM amiloride, currents activated by pH 4.0, mean +/- SEM (n= 17); for inhibition at 100 µM: co-application of 100 micro M amiloride with pH 4.0, biphasic response, hASIC3 in Xenopus oocytes
T1 sequence (Q9UHC3 1-531): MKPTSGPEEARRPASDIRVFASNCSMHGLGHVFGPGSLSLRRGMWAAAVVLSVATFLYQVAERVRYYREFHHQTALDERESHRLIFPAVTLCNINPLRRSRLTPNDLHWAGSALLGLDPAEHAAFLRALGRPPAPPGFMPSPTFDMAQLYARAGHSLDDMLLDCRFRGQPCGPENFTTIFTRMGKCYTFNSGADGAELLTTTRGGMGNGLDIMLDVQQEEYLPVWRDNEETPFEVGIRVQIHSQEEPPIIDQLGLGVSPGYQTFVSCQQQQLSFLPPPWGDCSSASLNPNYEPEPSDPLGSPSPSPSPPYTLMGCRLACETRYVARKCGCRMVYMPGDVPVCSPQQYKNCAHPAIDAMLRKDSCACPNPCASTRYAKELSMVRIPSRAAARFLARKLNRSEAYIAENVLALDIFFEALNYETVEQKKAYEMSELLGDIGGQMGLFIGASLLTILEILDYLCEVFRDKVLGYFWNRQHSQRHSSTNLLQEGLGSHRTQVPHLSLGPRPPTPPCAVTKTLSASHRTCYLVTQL
Protocol: Oocytes surgically removed from adult Xenopus laevis were treated for 2 h at room temperature with type II collagenase (Gibco-BRL) in Barth's solution under constant agitation. Selected oocytes at stage IV-V were defolliculated manually before nuclear micro-injections (Bertrand et al., 1991) of 5 ng of hASlC3 in pcDNA3 vector. After 2-4 days of expression at 19^-C in Barth's solution containing 50Êg/ml gentamycin, currents were recorded in the two-electrode voltage clamp configuration using an OC-725B amplifier (Warner Instruments). Whole cell currents were acquired and digitized at 500 Hz on a Macintosh IIci computer with an A/D NB-MIO16XL interface (National Instruments) then recorded traces were post-filtered at 100 Hz in Axograph (Axon Instruments). Agonist, amiloride and wash solutions were prepared in a modified Ringer's solution containing 115 mM NaCl, 2.5 mM KCI, 1.8 mM CaCl2 in 5-20 mM HEPES (Sigma) buffer adjusted with NaOH or HCl at pH 2 to 8 and applied on oocytes by constant perfusion (10-12 ml/min) at room temperature. Mean values ± SEM corresponded to measurements from a minimum of 5 oocytes.

Chain of rat P2x2 (ATP-gated ion channel subunit) (rat) (P49653 whole entry): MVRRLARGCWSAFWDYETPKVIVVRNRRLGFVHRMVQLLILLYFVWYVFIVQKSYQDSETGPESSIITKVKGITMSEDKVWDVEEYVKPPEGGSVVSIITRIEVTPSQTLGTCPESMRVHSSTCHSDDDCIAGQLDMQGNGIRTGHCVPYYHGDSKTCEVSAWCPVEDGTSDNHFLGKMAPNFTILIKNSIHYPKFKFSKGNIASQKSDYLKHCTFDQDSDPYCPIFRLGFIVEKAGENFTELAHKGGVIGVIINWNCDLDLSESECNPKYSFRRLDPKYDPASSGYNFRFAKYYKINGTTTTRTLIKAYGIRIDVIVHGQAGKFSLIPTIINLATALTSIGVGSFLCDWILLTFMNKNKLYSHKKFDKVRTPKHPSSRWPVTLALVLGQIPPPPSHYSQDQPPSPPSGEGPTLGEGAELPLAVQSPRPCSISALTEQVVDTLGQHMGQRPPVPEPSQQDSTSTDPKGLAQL

inward currents in Xenopus oocytes coinjected with hASIC3 and P2x2 (two-electrode voltage clamp), activating pH [1] [pH]	non-inactivating cation current induced by weak acid in Xenopus oocytes coinjected with hASIC3 clone and rat P2x2 clone [1] [pH]	non-inactivating cationic current induced by strong acid in Xenopus oocytes injected with the hASIC3 clone alone [2] [pH]	Compound	remaining activity at 100 µM ([3]; read-out: residual peak currents during amiloride application, fast component, expressed as percent of controls) [%]	remaining activity at 100 µM ([3]; read-out: residual peak currents during amiloride application, sustained component, expressed as percent of controls) [%]	inhibition at 100 µM ([3]; read-out: blockade of the fast current by amiloride) [%]	inhibition at 100 µM ([3]; read-out: blockade of the slow current by amiloride) [%]
6.5	6.5	4	hASIC3 (human non-inactivating amiloride-sensitive proton-gated ion channel subunit)	–	–	–	–
–	–	–	N=C(N)NC(=O)c1nc(Cl)c(N)nc1N [amiloride]	37.2 ± 6.4	72 ± 3.8	62.8 ± 6.5	28.7 ± 4.6
